The text below walks through data of publication PMC10017027, “Design and Synthesis of Novel HIV-1 NNRTIs with Bicyclic Cores and with Improved Physicochemical Properties” (Journal of Medicinal Chemistry, 2023).

A short description of series [1]: MDCK permeability assay (A to B). In kind it is in vitro ADME, Canine. The following applies: dog, MDCK. An excerpt:
Compounds were further tested in a Madin–Darby Canine Kidney (MDCK) assay to evaluate their potential for oral absorption. […] Additionally, there was no trend for better permeability when comparing arm I versus arm II when matched with the same core. The size of the B ring had the greatest influence on Papp with the trend being five-membered > six-membered > seven-membered rings (Table 1).
cMdr1-KO cells were maintained in Dulbecco’s modified Eagle’s medium (DMEM) with sodium pyruvate and GlutaMax, supplemented with 1% Pen/Strep and 10% fetal bovine serum in an incubator set at 37 °C, 90% humidity, and 5% CO2. MDCKII- cMdr1-KO cells were grown to confluence over 3 days on 96-well PET plates with 1 μm pore size, polyester membrane (Corning 3392). Experiments were run using HBSS donor buffer from Invitrogen containing an additional 10 mM HEPES, 15 mM glucose, and 0.1% BSA adjusted to pH 7.4. The receiver well had HBSS buffer supplemented with 1% BSA, 10 mM HEPES, 15 mM glucose, and the pH was adjusted to 7.4. TEER values were read to test membrane integrity at the beginning of the assay. The experiment was started by the addition of dosing solutions containing test compounds. Samples were taken from the donor compartment at 0/120 min and from the receiver compartment at 120 min. Each compound was tested in two separate replicate wells. All samples were immediately collected in a 72:8:20 MeCN/MeOH:H2O mix to precipitate protein and stabilize the test compounds. Cells were dosed on the apical side to determine forward (A to B) permeability. To test for non-specific binding and compound instability, the total amount of drug was quantified at the end of the experiment and compared to the material present in the original dosing solution as a percentage of recovery. Samples were analyzed by RF-QToF.

The test system of the next series is HIV-1 HXB2 Y181C variant. Kind of series: MT-4 antiviral cytopathic effect assay, HXB2-Y181C. In kind it is cell-based.

As to `Cc1cc(C#N)cc(C)c1N1CC(=O)Nc2cnc(Nc3ccc(C#N)cc3)nc21` [Compound 3, 4-(2-((4-Cyanophenyl)amino)-6-oxo-6,7-dihydropteridin-8(5H)-yl)-3,5-dimethylbenzonitrile], the Papp A→B at 120 min in series [1] (supplement CSV) is 4.1 ×10⁻⁶ cm/s; in series [1] (apparent permeability coefficient, A to B, pH 7.4) it was 4.1 ×10⁻⁶ cm/s. The EC50 in the series on HIV-1 HXB2 Y181C variant (Human immunodeficiency virus 1, HXB2, read-out: EC50 Y181C) is 30.2 nM. In addition, the “Y181C (FC)” value in the series with HIV-1 HXB2 Y181C variant (fold change: ratio of potency against HXB2 Y181C and parental HXB2) was found to be 3.7; in the series on HIV-1 HXB2 Y181C variant (supplement CSV, fold change vs HXB2), 3.7. Besides, the “potency against Y181C mutated strain” value in the series with HIV-1 HXB2 Y181C variant (preliminary biological data, in words) is reported as “high potency”.
